Patent publication US10092492B2, “Cosmetic composition comprising spiculisporic acid and at least one surfactant” (L'OREAL, priority 2013, dated 2018)
Where “and” joins values, the source holds several entries; their conditions need not be identical. Identical values can stand only once. Entries after “also recorded” stand apart in the source; their conditions may differ.

Tests used:
[1] = Example 2: pH and macroscopic observation of S-acid neutralized with NaOH (R1=1.1) with surfactants, stored at 4° C.; format: physicochemical; settings: for Macroscopic observation after 12 days after storage: stored in the dark at 4° C., listed as S-acid alone
Method: Solutions, containing S-acid at 4% or 8% (neutralized with an amount of NaOH calculated in order to obtain R1=1.1) and surfactants, were made, as shown in the table below:
The solutions were prepared according to the following procedure:
S-acid aqueous solution is prepared. The base is added under stirring. The resulting mixture is stirred at 40° C. Then the surfactant is added under stirring. The solution is then stored in the dark at 4° C.

[2] = cited from earlier work
[3] = Example 1: pH and aspect of S-acid solutions neutralized with NaOH (30%) or KOH (50%), stabilized at 4° C. and RT; format: physicochemical; parameters: key to aspect of the solution (precipitation mark): The marked solutions (*) correspond to precipitated solutions; settings: for pH T4° C. 24 h / pH T4° C. 30 days / pH TRT 24 h / pH TRT 30 days / pH TRT t0: R1=2
Excerpt: In order to neutralize spiculisporic acid (S-acid), two moles of base were used for one mole of S-acid, i.e., R1=2.
Increasing concentration ranges of S-acid from 1% to 10% were achieved, either with NaOH (solution at 30% m/m), or with KOH (solution at 50% m/m).
The solutions were made twice (A and B) in order to evaluate the reproducibility of the results. All the ranges of the neutralized solutions with both bases are limpid at t0 and the pH values obtained range from 5.19 to 6.79.
The marked solutions (*) correspond to precipitated solutions.

[4] = Example 2: aspect and pH of S-acid pre-solubilized with KOH (R1=2) in association with surfactants; format: physicochemical; settings: for pH t0 RT / pH RT, 20 days after storage / pH T = 4° C., 20 days after storage: KOH R1=2
Excerpt: Solutions, containing S-acid at 4% or 8% (neutralized with an amount of KOH calculated in order to obtain the di-potassium salt of S-acid, i.e., R1=2) and surfactants, were made.

[5] = KOH solution at 50%, S-acid 1%, A and B
[6] = KOH solution at 50%, S-acid 2%, A and B
[7] = NaOH solution at 30%, S-acid 1%, A and B
[8] = NaOH solution at 30%, S-acid 2%, A and B
[9] = S-acid 4% MA, surfactant 4% where present

CCCCCCCCCCC(C(=O)O)C1(C(=O)O)CCC(=O)O1 (centres unmarked) [S-acid, 4,5-dicarboxy-4-pentadecanolide]
pH t0 RT ([1]; S-acid 4% MA, NaOH R1=1.1): 4.89 | Macroscopic observation after 12 days after storage ([1]; S-acid 4% MA, NaOH R1=1.1): precipitation; also recorded: precipitate | pH t0 RT ([1]; S-acid 8% MA, NaOH): 5.11 | Macroscopic observation after 12 days after storage ([1]; S-acid 8% MA, NaOH): precipitation; also recorded: precipitate | solubility in water at a high temperature ([2]; high temperature): partly soluble | solubility in ethanol ([2]; room temperature): soluble | solubility in fats ([2]; room temperature): insoluble | solubility in water ([2]; room temperature): insoluble | pH T4° C. 24 h [3, 5]: 6.09 and 5.26 | pH T4° C. 30 days [3, 5]: 5.86 and 5.39 | pH TRT 24 h [3, 5]: 6.03 and 5.28 | pH TRT 30 days [3, 5]: 5.69 and 5.18 | pH TRT t0 [3, 5]: 5.93 and 5.22 | pH T4° C. 24 h [3, 6]: 5.48 and 5.61 | pH T4° C. 30 days [3, 6]: 5.46 and 5.53 | pH TRT 24 h [3, 6]: 5.67 and 5.59 | pH TRT 30 days [3, 6]: 5.39 and 5.59 | pH TRT t0 [3, 6]: 5.4 and 5.19 | aspect of the solution (precipitation mark) ([3]; KOH, S-acid 2%, 4° C. 24 h): * | aspect of the solution (precipitation mark) ([3]; KOH, S-acid 2%, 4° C. 30 days): * | aspect of the solution (precipitation mark) ([3]; KOH, S-acid 2%, RT 24 h): * | aspect of the solution (precipitation mark) ([3]; KOH, S-acid 2%, RT 30 days): * | pH T4° C. 24 h [3, 7]: 5.78 and 5.49 | pH T4° C. 30 days [3, 7]: 5.69 and 5.41 | pH TRT 24 h [3, 7]: 5.78 and 5.49 | pH TRT 30 days [3, 7]: 5.59 and 5.42 | pH TRT t0 ([3]; NaOH solution at 30%, S-acid 1%, duplicate solutions A and B): 5.66 and 5.37 | pH T4° C. 24 h [3, 8]: 5.7 and 5.78 | pH T4° C. 30 days [3, 8]: 5.72 and 5.69 | pH TRT 24 h [3, 8]: 5.7 and 5.74 | pH TRT 30 days [3, 8]: 5.64 and 5.49 | pH TRT t0 ([3]; NaOH solution at 30%, S-acid 2%, duplicate solutions A and B): 5.64 and 5.6 | aspect of the solution (precipitation mark) ([3]; NaOH, S-acid 2%, 4° C. 24 h): * | aspect of the solution (precipitation mark) ([3]; NaOH, S-acid 2%, 4° C. 30 days): * | aspect of the solution (precipitation mark) ([3]; NaOH, S-acid 2%, RT 30 days): * | stability of the solutions after 30 days at 4° C. ([3]; from 2% of S-acid, both bases (NaOH, KOH)): crystallization | pH t0 RT ([4]; S-acid 4% MA, surfactant 4% active material where present): 5.97 | pH RT, 20 days after storage [4, 9]: 6.02 | pH T = 4° C., 20 days after storage [4, 9]: 6.01 | result after 20 days of storage at 4° C. (in words) ([4]; S-acid 4%, KOH R1=2, surfactant 4% where present): precipitation | pH RT, 20 days after storage ([4]; S-acid 8% MA, no surfactant): 6.47 | pH T = 4° C., 20 days after storage ([4]; S-acid 8% MA, no surfactant): 6.47 | pH t0 RT ([4]; S-acid 8% MA, no surfactant): 6.43 | result after 20 days of storage at 4° C. (in words) ([4]; S-acid 8%, KOH R1=2, no surfactant): precipitation
